# Source: ChEMBL document CHEMBL3044594, “Comparison of the inhibitory action of synthetic capsaicin analogues with various NADH-ubiquinone oxidoreductases” (Biochim Biophys Acta, 1996)
# Calls of active or inactive are those of the source. The calls are words filed in the database; no cut-off is given here.
# Assays:
# Escherichia coli = test: Inhibition of Escherichia coli GR19N NDH2 assessed as […] reductase activity at 100 uM relative to control
# Solanum tuberosum [1] = test: Inhibition of Solanum tuberosum (potato) inner mitochondrial membrane NDH2 assessed as […] reductase activity at 100 uM relative to control
# Solanum tuberosum [2] = test: Inhibition of Solanum tuberosum (potato) submitochondrial particle NDH1 assessed as deaminoNADH-DB reductase activity
SMILES,inhibition (Escherichia coli),inhibition (Solanum tuberosum [1]),pI50 (Solanum tuberosum [2])
COc1ccc(CNC(=O)c2cccc3ccccc23)cc1OC,inactive,inactive,
CCCCCCCCCCCC(=O)NCc1cccc(OC)c1,inactive,60%,
C/C=C(\C)[C@H](O)[C@H](C)/C=C(C)/C=C/C/C(C)=C/Cc1nc(OC)c(OC)c(O)c1C,50%,,
CCCCCCCCCCCC(=O)NCc1ccc(Cl)c(Cl)c1,70%,inactive,
CCCCCCCCc1ccc(C(=O)NCc2cc(OC)ccc2OC)cc1,60%,,
CCCCCCCCCCCC(=O)NCc1ccccc1OC,inactive,inactive,
CCCCCCCCc1ccc(C(=O)NCc2ccc(OC)c(OC)c2)cc1,50%,inactive,
CCCCCCCCCCCC(=O)NCc1ccc(OC)c(OC)c1,inactive,,
Cc1nn(C)c(Oc2ccccc2)c1/C=N/OCc1ccc(C(=O)OC(C)(C)C)cc1,60%,,
COc1ccc(CNC(=O)c2ccc(Oc3ccc(Cc4ccccc4)cc3)cc2)cc1OC,50%,inactive,
CCCCCCCCCCNC(=O)CCc1ccc(OC)c(OC)c1,40%,inactive,
COc1cc(CNC(=O)CCCC/C=C/C(C)C)ccc1O,20%,inactive,
CCCCc1ccc(Oc2ccc(C(=O)NCc3ccc(OC)c(OC)c3)cc2)cc1,60%,inactive,
CCCCCCCCc1ccc(C(=O)N(C)Cc2ccc(OC)c(OC)c2)cc1,60%,,
CCCCCCCOc1ccc(C(=O)NCc2ccc(OC)c(OC)c2)cc1,60%,inactive,
CCCCc1ccc(C(=O)NCc2ccc(OC)c(OC)c2)cc1,inactive,inactive,inactive
COc1ccc(CNC(=O)c2ccc(-c3ccccc3)cc2)cc1OC,inactive,inactive,
CCCCCCCCCCCC(=O)N(C)Cc1cc(OC)ccc1OC,30%,,
CCCCCCCOc1ccc(C(=O)NCc2ccc(OC)c(OC)c2)c(O)c1,90%,30%,
CCCCCCCCCCC(=O)NCCc1ccc(OC)c(OC)c1,inactive,inactive,
CCCCCCCCCCCC(=O)NCc1ccc2c(c1)OCO2,60%,inactive,
CCCCCCCCCCCC(=O)N1CCc2cc(OC)c(OC)cc2C1,inactive,,
COc1ccc(CNC(=O)c2ccccc2)cc1OC,inactive,inactive,inactive
COc1ccc(CNC(=O)c2ccc(C(C)(C)C)cc2)cc1OC,inactive,inactive,inactive
CCCCCCCCCC(=O)NCCCc1ccc(OC)c(OC)c1,40%,inactive,inactive
COc1ccc(CNC(=O)c2ccc(Oc3ccc(C(C)(C)C)cc3)cc2)cc1OC,60%,100%,
CCCCCCCCCCCC(=O)N(C)Cc1ccc(OC)c(OC)c1,inactive,,

SMILES,inhibition (Escherichia coli),inhibition (Solanum tuberosum [1]),pI50 (Solanum tuberosum [2])
COc1ccc(CNCc2ccc(Oc3ccc(C(C)(C)C)cc3)cc2)cc1OC,60%,inactive,
COc1ccc(CNC(=O)c2ccc(Oc3ccccc3C)cc2)cc1OC,90%,,inactive
CCCCCCCCCCCC(=O)NCc1cc(OC)cc(OC)c1,inactive,inactive,
CCCCCCCCCCCC(=O)NCc1ccc(OC)cc1,80%,100%,
CCCCCCCCCCOc1ccc(C(=O)NCc2ccc(OC)c(OC)c2)cc1,70%,inactive,inactive
COc1ccc(CNC(=O)c2ccccc2C)cc1OC,inactive,inactive,inactive
C=C(C)[C@H]1Cc2c(ccc3c2O[C@@H]2COc4cc(OC)c(OC)cc4[C@@H]2C3=O)O1,70%,inactive,
CCCCCCCCCCCCNC(=O)c1ccc(OC)c(OC)c1,inactive,inactive,
COc1ccc(CNC(=O)c2ccc(Oc3ccc(C)cc3)cc2)cc1OC,inactive,inactive,inactive
COc1ccc(CNC(=O)c2ccc(OCc3ccccc3)cc2)cc1OC,inactive,inactive,inactive
COc1ccc(OC)c(CNC(=O)c2ccc(Oc3ccc(C(C)(C)C)cc3)cc2)c1,60%,,
CCCCCCCCCCCCC(=O)Nc1ccc(OC)c(OC)c1,inactive,inactive,
CCCCCCCCCCCC(=O)NCc1cccc(OC)c1OC,inactive,inactive,
CCCCCCCCCCCC(=O)NCc1ccc(OC)cc1OC,inactive,inactive,
CCCCCCCCCCCC(=O)NCc1ccccc1,inactive,inactive,
CCCCCCCCCCCC(=O)NCc1cc(C)ccc1C,60%,inactive,
CCCCCCCCCCCC(=O)NCc1cc(OC)ccc1OC,inactive,100%,
COc1ccc(CNC(=O)c2ccc(C)cc2)cc1OC,inactive,inactive,
CCCCCCCCCCCC(=O)NCc1ccc(C)c(C)c1,60%,inactive,
CCCCCCCOc1cccc(C(=O)NCc2ccc(OC)c(OC)c2)c1,60%,inactive,
COc1ccc(CN(C)C(=O)c2ccc(Oc3ccc(C(C)(C)C)cc3)cc2)cc1OC,40%,inactive,
CCCCCCCCCCCC(=O)NCc1ccc(O)c(OC)c1,70%,inactive,inactive
CCCCCCCCCCCCNCc1ccc(OC)c(OC)c1,inactive,,
CCC(C)(C)c1ccc(Oc2ccc(C(=O)NCc3ccc(OC)c(OC)c3)cc2)cc1,60%,,
CCCCCCCCCCCNC(=O)Cc1ccc(OC)c(OC)c1,inactive,inactive,
COc1ccc(CNC(=O)c2ccc3ccccc3c2)cc1OC,inactive,inactive,
